This is an account of results in article PMC5719408, “Multivalent cross-linking of actin filaments and microtubules through the microtubule-associated protein Tau” (Nature Communications, 2017).

Assay [1] concerns F-actin. Kind of assay: Electron microscopy of actin bundles. Type of assay: biochemical, human. As to conditions: uranyl acetate stain, room temperature. Here is the method: The ability of Tau to bundle F-actin was studied using electron microscopy (EM). The diameter of single actin filaments was approximately 7 nm, in agreement with previous studies, [30]. […] Actin bundles ranged between 20 and 150 nm in diameter. Next, Tau/F-actin co-sedimentation was performed. The same sample, which was used for EM, was exposed to two sequential steps of centrifugation, in which single-actin filaments and actin bundles were collected separately. Subsequently, aliquots from supernatant (SN), filament (PF), and bundle (PB) fractions were loaded in a 4–20% gradient gel (Fig. 1c). […] In addition, ~8% of Tau molecules were bound to single filaments, while ~29% of Tau was found together with actin bundles.
The sample was then dialyzed against General Actin Buffer (GAB; 5 mM TrisHCl pH 8.0, 0.2 mM CaCl2, 0.2 mM ATP, 0.5 mM DTT) or NMR buffer (50 mM NaH2PO4/Na2HPO4 pH 6.8, 10 mM NaCl, 1 mM DTT, 10% (v/v) D2O) to be used for electron microscopy or NMR experiments, respectively. […]
Samples were bound to a glow discharged carbon foil covered copper grid. […] The samples were evaluated at room temperature using a CM 120 transmission electron microscope (FEI, Eindhoven, and The Netherlands) and a TemCam F416 CMOS camera (TVIPS, Gauting, Germany).

Assay [2] concerns F-actin. The experiment in a line: Transfer NOE (2D NOESY) of Tau peptides with F-actin. Type of assay: binding, human. As to conditions: 27 μM F-actin, 800 μM peptide, NMR buffer pH 6.8 with 0.2 mM ATP and 0.2 mM CaCl2, 278 K. The source says: Instead, short hydrophobic Tau segments, which are separated from each other by flexible residues, bind dynamically to actin’s hydrophobic pocket (Fig. 2). […] NMR Nuclear overhauser effect (NOE) measurements that are sensitive for three-dimensional structure were subsequently performed. […] This approach is called transfer NOE and has been widely used to determine the structure of small ligands in complex with high molecular weight binding partners.
Two-dimensional NOESY experiments with five different mixing times ranging from 50 up to 250 ms were recorded for Tau(254–290) in the presence of F-actin. […] The NOE peaks, which were observed only in the presence of F-actin, provide experimental restraints for the structure of Tau(254–290) in complex with F-actin.
(§1) The sample was then dialyzed against General Actin Buffer (GAB; 5 mM TrisHCl pH 8.0, 0.2 mM CaCl2, 0.2 mM ATP, 0.5 mM DTT) or NMR buffer (50 mM NaH2PO4/Na2HPO4 pH 6.8, 10 mM NaCl, 1 mM DTT, 10% (v/v) D2O) to be used for electron microscopy or NMR experiments, respectively. In case of actin, lyophilized actin was reconstituted to 10 mg ml^−1 by adding 100 μl of distilled water to be in the following buffer: GAB with 5% (w/v) sucrose and 1% (w/v) dextran. Subsequently, the sample was spun at 18,400 × g for 15 min, the supernatant was kept, and actin was polymerized by incubating 0.4 mg ml^−1 G-actin in GAB and supplemented with polymerization buffer (1/10th the volume; 100 mM Tris HCl pH 7.5, 20 mM MgCl2, 500 mM KCl, 10 mM ATP) for 1 h at room temperature. Afterwards, the sample was centrifuged at 100,000 × g during 1 h at 4 °C. Filaments were collected at the bottom of the ultracentrifuge tube. The pellet was then resuspended in GAB or NMR Buffer as required.
NMR spectra were acquired on Bruker Avance800 and 900 MHz NMR spectrometers at 278 K to reduce solvent exchange. 2D ^1H-^15N HSQC spectra consisted of 64 scans, spectral windows of 12 ppm in the proton and 25 ppm in the nitrogen dimension. 2D NOESY experiments were acquired using 88 scans, 12 ppm spectral width and a time domain of 512 and 2048 points in the first and second dimension, respectively. To generate buildup curves, mixing times of 50, 80, 100, 150, and 250 ms were used.
For NOESY experiments, 27 μM of F-actin were mixed with 800 μM of Tau peptide in NMR buffer supplemented with 0.2 mM ATP and 0.2 mM CaCl2. A reference experiment was performed in similar conditions only with 800 μM peptide. For resonance assignment, a 2D TOCSY experiment with a mixing time of 75 ms was performed. All data were processed using NMRPipe[76] and analyzed using Sparky[77].

Assay [3] relates to F-actin. The experiment in a line: Protein co-sedimentation / actin bundling (differential centrifugation, SDS gel). Type of assay: biochemical, human. As to conditions: for bundling of F-actin: co-sedimentation, F-actin with Tau (1:1) or Tau peptides (1:10, Tau(254–268) 1:30), room temperature 30 min. Here is the method:
The ability of Tau to bundle F-actin was studied using electron microscopy (EM). […] Next, Tau/F-actin co-sedimentation was performed. The same sample, which was used for EM, was exposed to two sequential steps of centrifugation, in which single-actin filaments and actin bundles were collected separately. Subsequently, aliquots from supernatant (SN), filament (PF), and bundle (PB) fractions were loaded in a 4–20% gradient gel (Fig. 1c).
as §1
Mixtures of F-actin with Tau (1:1) or Tau peptides (1:10 molar ratio) were incubated at room temperature for 30 min. In case of the shorter peptide Tau(254–268), a 1:30 ratio was used. Centrifugation was performed in two steps. First, a spin rate of 5000 × g was used during 15 min to collect bundles of F-actin (PB) at the bottom of the tube. Secondly, the remaining sample was centrifuged at 100,000 × g during 1 h collecting actin filaments (PF). The final supernatant (SN) was also kept for later usage. Pellets were resuspended in 80 μl of GAB. A volume of 25 μl of sample were taken for EM while the remaining 55 μl were loaded in a 4–20% gradient SDS gel, which was colored with […] and denatured with SDS and heat.

In assay [4] the test system is Tau. Kind of assay: Binding of cofilin to Tau (HSQC). On the set-up: species or system human. Particulars: 15N-Tau/F-actin 1:1.5, 10-fold excess of cofilin. Here is the method:
In order to gain insight into how Tau regulates the polymerization and structure of F-actin, we sought to obtain information about the Tau-binding site on F-actin. […] One of these binding partners is cofilin, a 21 kDa eukaryotic protein, which binds to F-actin with a K d < 0.05 µM[33] and results in disassembly of F-actin[34], [35]. […] To test if the binding site of Tau on F-actin overlaps with that of cofilin, we added a 10-fold excess of cofilin to a solution containing ^15N-labeled Tau and 1.5-fold excess (with respect to Tau) of F-actin. For the resulting mixture, a ^1H-^15N HSQC spectrum was recorded. […] Subsequently, we repeated the actin/Tau co-sedimentation assay in the presence of cofilin.
Human Tau (2N4R) was expressed in the E. coli strain BL21 (DE3) (MERCK Millipore) using the vector pNG2 as described. The bacterial pellet was resuspended in lysis buffer (50 mM Mes, 500 mM NaCl, 1 mM MgCl2, 1 mM EGTA, 5 mM DTT, pH 6.8) and supplemented with a protease inhibitor mixture. Cells were disrupted using a French pressure cell and subsequently boiled for 20 min. […]
For HSQC-based competition experiments, 20 μM of ^15N-labeled Tau were mixed with 30 μM F-actin in NMR buffer supplemented with 0.2 mM ATP and 0.2 mM CaCl2 (sample 2). […] Competition was monitored by reading out the variation in signal broadening in 2D ^1H-^15N HSQC spectra of Tau.

Assay [5] deals with F-actin. The experiment in a line: Protein co-sedimentation / actin bundling (differential centrifugation, SDS gel). Type of assay: biochemical, human. Particulars: molar ratio 1.5:1:10.
For assay [6], the target named is F-actin. As to conditions: read-out: Kd of cofilin for F-actin; cited from earlier work. Here is the method:
In order to gain insight into how Tau regulates the polymerization and structure of F-actin, we sought to obtain information about the Tau-binding site on F-actin. […] One of these binding partners is cofilin, a 21 kDa eukaryotic protein, which binds to F-actin with a K d < 0.05 µM[33] and results in disassembly of F-actin[34], [35].

For assay [7], the target named is T1, NBD-labeled F-actin (Oryctolagus cuniculus, UniProt P68135).
T1 construct: NBD-conjugated actin from α-skeletal muscle was bought from Hypermol; purchased Hypermol (Bielefeld, Germany); host or cells: α-skeletal muscle (tissue-derived (so in the source))
Kind of assay: F-actin binding assay (NBD fluorescence change). As to conditions: NBD-labeled, phalloidin-stabilized F-actin (α-skeletal muscle actin); 0.2 μM (Results) / 0.25 µM (Methods) F-actin; GAB (5 mM TrisHCl pH 8.0, 0.2 mM CaCl2, 0.2 mM ATP, 0.5 mM DTT), 25 °C; single-binding site fit; s.d. from three experiments; read-out: dissociation constant (Kd) of Tau or Tau fragment for F-actin.
Protocol: In order to gain insight into the affinity of the Tau/F-actin-interaction, the change in fluorescence of 7-chloro-4-nitrobenz-2-oxa-1,3-diazole (NBD)-labeled F-actin upon addition of Tau was followed[31]. 0.2 μM of NBD-labeled and phalloidin-stabilized F-actin were mixed with increasing amounts of Tau (Fig. 1d and Supplementary Fig. 1).
NBD-conjugated actin from α-skeletal muscle was bought from Hypermol (Bielefeld, Germany). In this experiment, 7-chloro-4-nitrobenz-2-oxa-1,3-diazole (NBD)-labeled G-actin was polymerized starting from 0.4 mg ml^−1 of the conjugated actin supplemented with 10-fold excess of phalloidin (catalog no. P2141, Sigma-Aldrich) to provide stable filaments. […] The change of fluorescence intensity from NBD was followed in a Cary Eclipse fluorescence spectrophotometer (Agilent Technologies, Inc.). […] As reported by Hertzog, M. et al.[31] the normalized decrease in fluorescence (equation 1) was analyzed and fitted by using equation 2.1 E=F-F0/Fmax-F0 2 E=1/2C+1/2Z-1/2C+Z^2-4Z with Z=[partner]/[F-actin]andC=1+Kd/[F-actin]
Affinity of Tau and Tau fragments for binding to NBD-labeled F-actin. (a) Change of NBD fluorescence upon addition of increasing concentrations of Tau and Tau fragments. […]
(b) Bar diagram showing Kd values, which were determined based on the quenching effect of Tau/Tau fragments on the fluorescent properties of NBD-labeled F-actin. […]

The test system of assay [8] is F-actin. The experiment in a line: Titration of F-actin into 15N-Tau, two-state Bloch-McConnell fit (peer review file). Type of assay: binding, human. Particulars: grid-search pushed to the edge of the parameter space, fits were not good. The text has this: (4 pictures or pasted objects on this page, not shown here)
In assay [9] the target is F-actin. Particulars: phosphate buffer; read-out: Kd of Tau/F-actin, previously reported; cited from earlier work. Here is the method: 0.2 μM of NBD-labeled and phalloidin-stabilized F-actin were mixed with increasing amounts of Tau (Fig. 1d and Supplementary Fig. 1). […] Other stoichiometries, however, cannot be excluded. The derived dissociation constant is lower than a previously reported value of 241 ± 43 nM[7] ...

Where two headings read alike, the source gives them in different places. Some results are limits rather than exact numbers.

For “Tau(254–290): synthetic Tau peptide, acetyl and amide protection groups at the N- and C terminus”, the “bundling of F-actin (electron microscopy)” value in assay [1] is given as “bundles filaments”. In assay [2], the “transfer NOE cross-peaks in presence of F-actin” value (“transfer NOE cross-peaks” for short) is “additional NOE cross-peaks were observed”.

Consider “Tau(254–284): Tau peptide, residues 254–284”, for which the “bundling of F-actin” value in assay [3] is on record as “promoted actin bundles”.

In the case of “cofilin: human cofilin (catalog no. CF01, Cytoskeleton, Inc.), 21 kDa eukaryotic actin-binding protein”, the “binding of cofilin to Tau” value in [4] was “does not bind to Tau”. In addition, the “disassembly of actin filaments by cofilin” value in [5] (F-actin + Tau + cofilin) is reported as “actin filaments were not disassembled by cofilin”. Besides, the “effect of cofilin on Tau co-sedimentation with F-actin” value in assay [5] is on record as “decreased the amount of Tau that co-sedimented with F-actin”. Moreover, the Kd in [6] is below 50 nM.

“Tau: full-length human Tau (2N4R), expressed in E. coli”: the Kd in assay [7] was 60 ± 10 nM; in assay [9] it was 241 ± 43 nM. Moreover, in assay [3] (F-actin:Tau 1:1, room temperature 30 min, pellet of 5000 × g, 15 min), the “Tau found together with actin bundles (PB)” value is reported as ~ 29%. The “Tau bound to single filaments (PF)” value in assay [3] (F-actin:Tau 1:1, room temperature 30 min, pellet of 100,000 × g, 1 h) was ~ 8%. The “Tau remaining in supernatant (SN)” value in assay [3] (F-actin:Tau 1:1, room temperature 30 min, quantification of gel band intensity, supernatant after 100,000 × g) was ~ 63%. Moreover, the “bundling of F-actin” value in assay [3] was “bundles actin filaments”. Besides, in assay [1], the “bundling of F-actin (electron microscopy)” value is “caused bundling of F-actin”. Also, in assay [8], the “kon, local two-state NMR fit (residues I260, L266, G287/V287)” value was ~10^7 M-1s-1.

Regarding “K18: artificial fragment of Tau which comprises all four repeats (residues Gln244–Glu372 plus initial Met243)”, the “bundling of F-actin” value in assay [3] was “capable of bundling F-actin”.

Take “Tau(254–268): contains the residues which form the helix in the N-terminal half of Tau(254–290) (Ac-KNVKSKIGSTENLKH-NH2)”: in [3], the “bundling of F-actin” value was “not able to bundle F-actin”. Moreover, the “transfer NOE cross-peaks” value in assay [2] is given as “folds into an α-helix (residues 259–265) in complex with F-actin”.

For the substance “Tau(292–319): Tau peptide comprising the residues of repeat R2 and R3”, the “bundling of F-actin” value in [3] is recorded as “promotes bundling of actin filaments”. Also, the “transfer NOE cross-peaks” value in [2] is reported as “revealed NOEs specific for the Tau(292–319)/F-actin complex”.
